Experimental data: US9896445B2, “Heterocyclic inhibitors of ERK1 and ERK2 and their use in the treatment of cancer” (Asana Biosciences, LLC, priority 2015, dated 2018)

How the values were obtained:
ERK1 = molecular target: T1, ERK1 (Homo sapiens, UniProt P27361); assay: ERK1 HTRF (biochemical) assay; details: HTRF
T1 construct: purchased Jubilant Biosys
Procedure: ERK1 and ERK2 HTRF (Biochemical) Assays
These assays employed a homogeneous time resolved fluorescence (HTRF) technique. […] The plate was incubated at room temperature for 60 min with shaking. […] The IC50 values (half maximal inhibitory concentration values) were subsequently determined using a sigmoidal dose-response curve (variable slope) in GraphPad Prism® 5 software.

ERK2 = molecular target: T2, ERK2 (Homo sapiens, UniProt P28482); assay: ERK2 HTRF (biochemical) assay; details: HTRF
T2 construct: purchased Jubilant Biosys
T2 sequence (P28482 whole entry): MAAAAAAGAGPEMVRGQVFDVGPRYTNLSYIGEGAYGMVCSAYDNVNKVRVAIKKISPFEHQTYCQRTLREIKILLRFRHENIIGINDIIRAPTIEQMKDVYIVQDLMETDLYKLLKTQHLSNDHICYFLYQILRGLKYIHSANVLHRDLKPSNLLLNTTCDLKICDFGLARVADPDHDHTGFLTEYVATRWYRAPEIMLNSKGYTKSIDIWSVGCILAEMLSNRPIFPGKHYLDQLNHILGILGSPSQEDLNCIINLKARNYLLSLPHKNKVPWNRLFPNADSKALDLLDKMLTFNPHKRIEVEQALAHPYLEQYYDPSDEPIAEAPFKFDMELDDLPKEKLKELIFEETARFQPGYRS
Procedure, shortened: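 Readout was time-resolved FRET between europium anti-phospho-MBP and streptavidin-APC after a 60-min room-temperature kinase step. That step used ERK2 (25 nM in enzyme mix), biotinylated MBP peptide (1 uM) and ATP (24 uM) from the substrate mix, in pH 7.5 Tris buffer.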

T1 sequence (P27361 whole entry): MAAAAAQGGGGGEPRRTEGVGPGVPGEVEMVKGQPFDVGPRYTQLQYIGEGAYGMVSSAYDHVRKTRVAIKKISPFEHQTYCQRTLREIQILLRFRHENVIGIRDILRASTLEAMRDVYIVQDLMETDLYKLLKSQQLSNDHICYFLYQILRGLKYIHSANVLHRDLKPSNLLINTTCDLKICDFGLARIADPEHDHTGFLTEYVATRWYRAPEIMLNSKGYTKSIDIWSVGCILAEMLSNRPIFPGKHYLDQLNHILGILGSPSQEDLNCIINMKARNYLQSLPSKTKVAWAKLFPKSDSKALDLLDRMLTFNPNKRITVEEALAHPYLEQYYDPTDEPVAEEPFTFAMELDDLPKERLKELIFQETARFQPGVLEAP

IC50 (ERK1) [nM] | IC50 (ERK2) [nM] | Compound
< 50 | ≤ 50 | Cc1cnc(Nc2ccc(F)cc2Cl)nc1-n1ccc(C(=O)NC(CO)c2cccc(Cl)c2)c1 (stereo not drawn) [Compound 31, 1-(2-((2-chloro-4-fluorophenyl)amino)-5-methyl-pyrimidin-4-yl)-N-(1-(3-chlorophenyl)-2-hydroxyethyl)-1H-pyrrole-3-carboxamide]
< 50 | ≤ 50 | Cc1cnc(NC2CCOCC2)nc1-n1cnc(C(=O)NC(CN)c2ccc(Cl)s2)c1 (single isomer, unassigned; enantiomer #2) [Example 291, N-(2-amino-1-(5-chlorothiophen-2-yl)ethyl)-1-(5-methyl-2-((tetrahydro-2H-pyran-4-yl)amino)-pyrimidin-4-yl)-1H-imidazole-4-carboxamide (enantiomer #2)]
< 50 | ≤ 50 | Cc1cnc(Nc2ccc3[nH]ncc3c2)nc1-n1ccc(C(=O)NC(CO)c2ccccc2)c1 (stereo not drawn) [Compound 140, 1-(2-((1H-indazol-5-yl)amino)-5-methylpyrimidin-4-yl)-N-(2-hydroxy-1-phenylethyl)-1H-pyrrole-3-carboxamide]
100 to 500 | 50 to 100 | O=C(Nc1cnn(-c2ccnc(NC3CC3)n2)c1)NC(CO)c1cccc(Cl)c1 (stereo not drawn) [Compound 16, 1-(1-(3-chlorophenyl)-2-hydroxyethyl)-3-(1-(2-(cyclopropyl-amino)pyrimidin-4-yl)-1H-pyrazol-4-yl)urea]
< 50 | ≤ 50 | Cc1cnc(NC2CCOCC2)nc1-n1cnc(C(=O)NCc2ccccc2CCO)c1 [Compound 243, N-(2-(2-hydroxy-ethyl)benzyl)-1-(5-methyl-2-((tetrahydro-2H-pyran-4-yl)amino)pyrimidin-4-yl)-1H-imidazole-4-carboxamide]
100 to 500 | ≤ 50 | Cc1cnc(Nc2ccc3c(c2)OCO3)nc1-n1cc(C(=O)NC(CO)c2cccc(Cl)c2)cn1 (stereo not drawn) [Compound 41, 1-(2-(benzo[d][1,3]dioxol-5-ylamino)-5-methylpyrimidin-4-yl)-N-(1-(3-chloro-phenyl)-2-hydroxy-ethyl)-1H-pyrazole-4-carboxamide]
< 50 | ≤ 50 | Cc1cnc(NC2CCOC2)nc1-n1ccc(C(=O)NC(CO)c2cccc(Cl)c2)c1 (stereo not drawn) [Compound 123, N-(1-(3-chlorophenyl)-2-hydroxyethyl)-1-(5-methyl-2-((tetrahydrofuran-3-yl)amino)pyrimidin-4-yl)-1H-pyrrole-3-carboxamide]
< 50 | ≤ 50 | O=C(NC(CO)c1ccccc1)c1ccn(-c2ccnc(Nc3ccccc3)c2)c1 (stereo not drawn) [Compound 71, N-(2-hydroxy-1-phenylethyl)-1-(2-(phenylamino)pyridin-4-yl)-1H-pyrrole-3-carboxamide]
< 50 | ≤ 50 | Cc1cnc(Nc2ccc(F)cc2Cl)nc1-n1cc(C(=O)NC(CO)c2cccc(Cl)c2)cn1 (stereo not drawn) [Compound 45, 1-(2-((2-chloro-4-fluorophenyl)amino)-5-methyl-pyrimidin-4-yl)-N-(1-(3-chlorophenyl)-2-hydroxyethyl)-1H-pyrazole-4-carboxamide]
500 to 2500 | 100 to 500 | Cc1cnc(Nc2ccc(F)cc2)nc1-n1cnc(C(=O)N[C@@H](CN)c2cccc(Cl)c2)c1 [Compound 249, (R)-N-(2-amino-1-(3-chlorophenyl)-ethyl)-1-(2-((4-fluorophenyl)-amino)-5-methyl-pyrimidin-4-yl)-1H-imidazole-4-carboxamide]
< 50 | ≤ 50 | Cc1cccc(C(CO)NC(=O)c2cn(-c3nc(NC4CCOCC4)ncc3C)cn2)c1 (stereo not drawn) [Compound 238, N-(2-hydroxy-1-(m-tolyl)ethyl)-1-(5-methyl-2-((tetrahydro-2H-pyran-4-yl)amino)pyrimidin-4-yl)-1H-imidazole-4-carboxamide]
< 50 | ≤ 50 | Cc1cnc(Nc2ccc3c(c2)OCO3)nc1-n1cnc(C(=O)NC(CN)c2cc(F)cc(Cl)c2)c1 (stereo not drawn) [Example 269, N-(2-amino-1-(3-chloro-5-fluorophenyl)ethyl)-1-(2-(benzo[d][1,3]dioxol-5-ylamino)-5-methylpyrimidin-4-yl)-1H-imidazole-4-carboxamide]
< 50 | ≤ 50 | O=C(NC(CO)c1cccc(Cl)c1)c1cn(-c2cc(Nc3ccccc3)ncc2Cl)cn1 (stereo not drawn) [Compound 106, 1-(5-Chloro-2-(phenylamino)pyridin-4-yl)-N-(1-(3-chlorophenyl)-2-hydroxyethyl)-1H-imidazole-4-carboxamide]
< 50 | ≤ 50 | Cc1cnc(Nc2ccc(F)cc2)nc1-n1cnc(C(=O)NCc2cccc(Cl)c2CO)c1 [Example 262, N-(3-chloro-2-(hydroxymethyl)benzyl)-1-(2-((4-fluorophenyl)-amino)-5-methyl-pyrimidin-4-yl)-1H-imidazole-4-carbox amide]
< 50 | ≤ 50 | CC[C@H](CO)Nc1ncc(C)c(-n2ccc(C(=O)NC(CO)c3cccc(Cl)c3)c2)n1 (stereo partly drawn) [Compound 167, N-(1-(3-chloro-phenyl)-2-hydroxy-ethyl)-1-(2-(((R)-1-hydroxybutan-2-yl)amino)-5-methylpyrimidin-4-yl)-1H-pyrrole-3-carboxamide]
50 to 100 | 50 to 100 | Cc1cnc(Nc2ccc(F)cc2Cl)nc1-n1ccc(C(=O)NC(CN)c2cccc(Cl)c2)c1 (stereo not drawn) [Compound 169, N-(2-amino-1-(3-chlorophenyl)ethyl)-1-(2-((2-chloro-4-fluorophenyl)amino)-5-methyl-pyrimidin-4-yl)-1H-pyrrole-3-carboxamide]
100 to 500 | 100 to 500 | CC(C)C[C@H](CO)Nc1nccc(-n2cc(NC(=O)N[C@H](CO)c3cccc(Cl)c3)cn2)n1 [Compound 13, 1-((S)-1-(3-chlorophenyl)-2-hydroxyethyl)-3-(1-(2-(((R)-1-hydroxy-4-methylpentan-2-yl)amino)pyrimidin-4-yl)-1H-pyrazol-4-yl)urea]
< 50 | ≤ 50 | Cc1cnc(Nc2ccc3c(c2)OC(F)(F)O3)nc1-n1ccc(C(=O)NC(CO)c2ccccc2)c1 (stereo not drawn) [Compound 63, 1-(2-((2,2-difluoro-benzo[d][1,3]dioxol-5-yl)amino)-5-methylpyrimidin-4-yl)-N-(2-hydroxy-1-phenylethyl)-1H-pyrrole-3-carboxamide]
< 50 | ≤ 50 | Cc1cnc(NC2CCCCC2)nc1-n1ccc(C(=O)NC(CO)c2cccc(Cl)c2)c1 (stereo not drawn) [Compound 195, N-(1-(3-chlorophenyl)-2-hydroxyethyl)-1-(2-(cyclohexylamino)-5-methylpyrimidin-4-yl)-1H-pyrrole-3-carboxamide]
< 50 | ≤ 50 | Cc1cc(Nc2ncc(C)c(-n3ccc(C(=O)NC(CO)c4cccc(Cl)c4)c3)n2)ccc1C1CCNCC1 (stereo not drawn) [Compound 182, N-(1-(3-chloro-phenyl)-2-hydroxyethyl)-1-(5-methyl-2-((3-methyl-4-(piperidin-4-yl)phenyl)-amino)pyrimidin-4-yl)-1H-pyrrole-3-carboxamide]
100 to 500 | 50 to 100 | CN1CCN(c2ccc(Nc3nccc(-n4cc(NC(=O)N[C@H](CO)c5cccc(Cl)c5)cn4)n3)cc2)CC1 [Compound 22, (S)-1-(1-(3-chlorophenyl)-2-hydroxyethyl)-3-(1-(2-((4-(4-methylpiperazin-1-yl)-phenyl)amino)pyrimidin-4-yl)-1H-pyrazol-4-yl)urea]
